Experimental data from patent publication US9248124B2, “Use of inhibitors of IκB kinase for the treatment of cancer” (Millennium Pharmaceuticals, Inc., priority 2001, dated 2016).
“Also recorded” adds a separate entry of the source.

How the values were obtained:
[1] = tested on: IκBα phosphorylation and degradation in MM.1S cells; experiment: Immunoblot of IκBα phosphorylation and degradation triggered by TNFα in MM.1S cells; assay type: cell-based, human; settings: Dex 1 μM 18 h, PS-341 5 μM 60 min, compound 1 10 μM 90 min, TNFα 5 ng/mL 5 min, FIG. 7; for TNFα-induced phosphorylation of IκBα: presence or absence of IL-6
Protocol: (§1) MM cells were cultured with PS-341 or compound 1; harvested; washed; and lysed using lysis buffer: 50 mM Tris-HCl (pH 7.4), 150 mM NaCl, 1% NP-40, 5 mM EDTA, 5 mM NaF, 2 mM Na3VO4, 1 mM PMSF, 5 μg/mL leupeptin, and 5 μg/mL aprotinin. For detection of phospho-IκBα, IκBα, phospho-MAPK, phospho-STAT3, ERK2 or alpha-tubulin, cell lysates were subjected SDS-PAGE, transferred to PVDF membrane (Bio-Rad Laboratories, Hercules, Calif.), and immunoblotted with anti-phospho-IκBα, -IκBα, -phospho-MAPK, or -phospho-STAT3 Abs (Cell Signaling, Beverly, Mass.), and anti-alpha-tubulin (Sigma) Abs.
Inhibition of IκBα phosphorylation by compound 1 was assayed in MM.1S and patient MM cells triggered by TNFα. […] To study the dose-dependent effect of compound 1, MM.1S cells were pre-treated with 1.25-40 μM compound 1 for 90 min, and then stimulated by TNFα (5 ng/mL).
The effect of Dex, compound 1, PS-341 and/or IL-6 on TNFα induced phosphorylation of IκBα in MM.1S cells was next examined. […] In contrast compound 1, in the presence or absence of IL-6, inhibits phosphorylation of IκBα. Dex inhibits TNFα-induced degradation of IκBα, whereas IL-6 blocks this effect. Both PS-341 and compound 1 inhibit degradation of IκBα, in the presence or absence of IL-6.

[2] = tested on: p42/44 MAPK phosphorylation; experiment: Immunoblot of IL-6 induced p42/44 MAPK phosphorylation in MM.1S cells; assay type: cell-based, human; settings: IL-6 50 ng/mL for 5 min, compound 1 10 μM 90 min, PS-341 5 μM 60 min, FIG. 5
Protocol: as §1

[3] = tested on: ICAM-1 and VCAM-1 expression on both BMSCs and MM cells; settings: Hideshima et al., Cancer Res. 61:3071 (2001); cited from earlier work
[4] = tested on: MM.1S, U266, and RPMI8226 cell lines; experiment: DNA synthesis ([3H]-TdR uptake) in MM cell lines; assay type: cell-based, human; settings: 48 h; FIG. 3B
Protocol: (§2) Proliferation was measured as previously described (Hideshima et al., Blood 96:2943 (2000)). MM cells (3×10^4 cells/well) were incubated in 96-well culture plates (Costar, Cambridge, Mass.) in the presence of media, PS-341, compound 1 and/or Dex or recombinant human IL-6 (Genetics Institute, Cambridge, Mass.) for 48 h at 37° C. DNA synthesis was measured by [^3H]-thymidine ([^3H]-TdR, NEN Products, Boston, Mass.) uptake. Cells were pulsed with [^3H]TdR (0.5 μCi/well) during the last 8 h of 48 h cultures. All experiments were performed in triplicate.
To study the direct effect of compound 1 on MM cells, [3H]-TdR uptake was measured in MM.1S, U266, and RPMI8226 cell lines cultured for 48 h in the presence of compound 1 (1.5-50 μM).

MM.1S cells [5] = settings: previously reported, Hideshima et al. Blood 96:2943 (2000); cited from earlier work
MM.1S cells [6] = experiment: DNA synthesis ([3H]-TdR uptake) in MM.1S cells with Dex, IL-6, Thal or IMiD3; assay type: cell-based, human; settings: IMiD3 0.25-1 μM, dose dependent, 48 h; FIG. 9
Protocol: as §2

Row | Compound | TNFα-induced phosphorylation of IκBα [1] | p42/44 MAPK phosphorylation [2] | MM.1S cell growth (MM.1S cells [5]) | further results
1 | C[C@@H]1C[C@H]2[C@@H]3CCC4=CC(=O)C=C[C@]4(C)[C@@]3(F)[C@@H](O)C[C@]2(C)[C@@]1(O)C(=O)CO [Dex, dexamethasone, reference compound] | does not inhibit | – | – | –
2 | COc1cccc(-c2cc(=O)c3ccccc3o2)c1N [PD98059] | – | selectively inhibits | – | –
3 | CC(C)C[C@H](NC(=O)[C@H](Cc1ccccc1)NC(=O)c1cnccn1)B(O)O [PS-341, reference compound] | does not inhibit; also recorded: enhances | inhibits | – | TNFα induction of ICAM-1 and VCAM-1 expression [3]: blocks induction; TNFα-induced degradation of IκBα [1]: inhibit; [3H]-TdR uptake in all cell lines tested [4]: completely inhibited
4 | Nc1cccc2c1CN(C1CCC(=O)NC1=O)C2=O (stereo not shown) [IMiD3, reference compound] | – | – | inhibit | DNA synthesis in MM.1S cell (MM.1S cells [6]): significantly (p<0.001) inhibited
5 | O=C1CCC(N2C(=O)c3ccccc3C2=O)C(=O)N1 (stereo not shown) [Thalidomide] | – | – | inhibit | –
